This is an account of results in patent US10676468B2, “N-(3-heteroarylaryl)-4-arylarylcarboxamides and analogs as hedgehog pathway inhibitors and use thereof” (IMPACT Therapeutics, Inc., priority 2012, dated 2020).

Type in all cases: cell-based, mouse
Assay [1] relates to Hedgehog Signaling Pathway. Kind of assay: SAG-induced differentiation of C3H10T1/2 cells into osteoblastic cells, intracellular alkaline phosphatase activity. The settings on record: 1 μM SAG, 5 days, alkaline phosphatase activity (OD405), read-out: IC50 values of compounds that inhibit Hh pathway. Put shortly: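 Mouse C3H10T1/2 cells were induced with SAG and exposed to compound (10 μM to 1 nM) for 5 days at 37 °C. Cells were lysed in 0.2% Triton, and alkaline phosphatase activity was read as OD405 over 30 min at 37 °C in pH 9.8 substrate buffer. IC50 came from a non-linear fit of background-subtracted OD405 against log concentration.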

Assay [2] concerns Hedgehog Signaling Pathway. The experiment in a line: SHH-induced differentiation of C3H10T1/2 cells into osteoblastic cells, intracellular alkaline phosphatase activity. The settings on record: 10 nM SHH-N, 5 days, alkaline phosphatase activity (OD405), read-out: IC50 values of compounds that inhibit Hh pathway. The essentials:
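Mouse C3H10T1/2 cells were induced with 10 nM SHH-N alongside test compound (10 μM–10 nM) for 5 days at 37 °C. Cells were lysed in 0.2% Triton, and alkaline phosphatase activity was read at OD405 over 30 min at 37 °C with the background reading subtracted. IC50 came from a nonlinear fit against log concentration.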

The test system of assay [3] is Hedgehog Signaling Pathway. Kind of assay: Gli-Luc reporter gene cell assay in C3H10T1/2/Gli-Luc cells stimulated with Shh. The settings on record: 30 nM Shh, luciferase activity (RLU), read-out: IC50 values of compounds that inhibit Hh pathway. Put shortly:
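C3H10T1/2 cells stably carrying Gli-responsive luciferase were seeded overnight, then treated 24 h at 37 °C with compound (7-point dilution series, DMSO control) plus Shh (30 nM in added medium). Lysate luciferase RLU fitted against log concentration to derive IC50.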
A general note: A reporter such as luciferase makes a cellular process visible.

Setting [4] is: Mus musculus, C3H 10T1/2, 120 h.

Structures can show the parent of a compound that is named as a salt.

Regarding `CCN1[C@H](C)CN(c2ccc(C(=O)Nc3ccc(Cl)c(-c4nc5ccccc5[nH]4)c3)c(Cl)c2)C[C@@H]1C` [Example 124, N-(3-(1H-benzo[d]imidazol-2-yl)-4-chlorophenyl)-2-chloro-4-((3S,5R)-4-ethyl-3,5-dimethylpiperazin-1-yl)benzamide], the IC50 in assay [1] (setting [4]) is 38 nM; in assay [2] (setting [4]), 0.49 nM; in assay [3] (Mus musculus, C3H 10T1/2, 24 h), 0.8 nM.
Taken in the same sequence, the figures for `CC(C)N1[C@H](C)CN(c2ccc(C(=O)Nc3ccc(Cl)c(-c4nc5ccccc5[nH]4)c3)c(Cl)c2)C[C@@H]1C` [Example 125, N-(3-(1H-benzo[d]imidazol-2-yl)-4-chlorophenyl)-2-chloro-4-((3S,5R)-4-isopropyl-3,5-dimethylpiperazin-1-yl)benzamide] were 23 nM, 1.2 nM and 0.57 nM.
For `C[C@H]1CN(c2ccc(C(=O)Nc3ccc(Cl)c(-c4nc5ccccc5[nH]4)c3)c(Cl)c2)CCN1C` [Example 126, (S)—N-(3-(1H-benzo[d]imidazol-2-yl)-4-chlorophenyl)-2-chloro-4-(3,4-dimethylpiperazin-1-yl)benzamide] the same measures were 81 nM, 25 nM and 2.3 nM.
As to `C[C@@H]1CN(c2ccc(C(=O)Nc3cnc(Cl)c(-c4nc5ccccc5[nH]4)c3)c(Cl)c2)C[C@H](C)N1C` [Example 127, N-(5-(1H-benzo[d]imidazol-2-yl)-6-chloropyridin-3-yl)-2-chloro-4-((3S,5R)-3,4,5-trimethylpiperazin-1-yl)benzamide], the IC50 in assay [1] (setting [4]) worked out at 34 nM; in assay [2] (setting [4]) it was 1.1 nM; in assay [3] (Mus musculus, C3H 10T1/2, 24 h) it was 1.1 nM.
For `C[C@@H]1CN(c2ccc(C(=O)Nc3cnc(Cl)c(-c4nc5ccccc5[nH]4)c3)c(Cl)c2)C[C@H](C)O1` [Example 128, N-(5-(1H-benzo[d]imidazol-2-yl)-6-chloropyridin-3-yl)-2-chloro-4-((2S,6R)-2,6-dimethylmorpholino)benzamide], the IC50 in assay [1] (setting [4]) is 60 nM; in assay [2] (setting [4]), 5.3 nM; in assay [3] (Mus musculus, C3H 10T1/2, 24 h), 5.2 nM.
For `C[C@@H]1CN(c2ccc(C(=O)Nc3cnc(Cl)c(-c4nc5ccc(F)cc5[nH]4)c3)c(Cl)c2)C[C@H](C)N1C` [Example 129, N-(5-(6-fluoro-1H-benzo[d]imidazol-2-yl)-6-chloropyridin-3-yl)-2-chloro-4-((3S,5R)-3,4,5-trimethylpiperazin-1-yl)benzamide] the same measures were 82 nM, 7.5 nM and 4 nM.
`C[C@@H]1CN(c2ccc(C(=O)Nc3cnc(Cl)c(-c4nc5ccc(Cl)cc5[nH]4)c3)c(Cl)c2)C[C@H](C)N1C` [Example 130, N-(5-(6-chloro-1H-benzo[d]imidazol-2-yl)-6-chloropyridin-3-yl)-2-chloro-4-((3S,5R)-3,4,5-trimethylpiperazin-1-yl)benzamide]: the half-inhibitory concentration (IC50) in assay [1] (setting [4]) was determined as 178 nM; in assay [2] (setting [4]), 18 nM; in assay [3] (Mus musculus, C3H 10T1/2, 24 h), 8.5 nM.
Regarding `C[C@@H]1CN(c2ccc(C(=O)Nc3ccc(Cl)c(-c4nc5ccccc5[nH]4)c3)c(Cl)c2)C[C@H](C)N1C` [Example 132, N-(3-(1H-benzo[d]imidazol-2-yl)-4-chlorophenyl)-2-chloro-4-((3S,5R)-3,4,5-trimethylpiperazin-1-yl)benzamide Dihydrochloride], the IC50 is 28 nM in assay [1] (Dihydrochloride); 0.53 nM in assay [2] (Dihydrochloride); 0.74 nM in assay [3] (24 hours, Dihydrochloride).
For `C[C@@H]1CN(c2ccc(C(=O)Nc3ccc(Cl)c(-c4nc5ccccc5[nH]4)c3)cc2Cl)C[C@H](C)N1C` [Example 133, N-(3-(1H-benzo[d]imidazol-2-yl)-4-chlorophenyl)-3-chloro-4-((3S,5R)-3,4,5-trimethylpiperazin-1-yl)benzamide Dihydrochloride] the same measures were 54 nM, 6.3 nM and 1.6 nM.
Take `Cc1csc(-c2cnc(-c3cc(NC(=O)c4ccc(N5C[C@@H](C)N(C)[C@@H](C)C5)cc4C)ccc3Cl)[nH]2)c1` [Example 135, N-(3-(5-(4-methylthiophen-2-yl)-1H-imidazol-2-yl)-4-chlorophenyl)-2-methyl-4-((3S,5R)-3,4,5-trimethylpiperazin-1-yl)benzamide]: the 50% inhibitory concentration (IC50) in assay [1] (setting [4]) was 67 nM; in assay [2] (setting [4]), 1.5 nM; in assay [3] (Mus musculus, C3H 10T1/2, 24 h) it was 1.2 nM.
Taken in the same sequence, the figures for `Cc1csc(-c2cnc(-c3cc(NC(=O)c4ccc(N5C[C@@H](C)N(C)[C@@H](C)C5)cc4Cl)ccc3Cl)[nH]2)c1` [Example 136, N-(3-(5-(4-methylthiophen-2-yl)-1H-imidazol-2-yl)-4-chlorophenyl)-2-chloro-4-((3S,5R)-3,4,5-trimethylpiperazin-1-yl)benzamide] were 9.2 nM, 4 nM and 0.97 nM.
For `C[C@@H]1CN(c2ccc(C(=O)Nc3ccc(Cl)c(-c4ncc(-c5ccc(Cl)s5)[nH]4)c3)cc2Cl)C[C@H](C)N1C` [Example 137, N-(3-(5-(5-chlorothiophen-2-yl)-1H-imidazol-2-yl)-4-chlorophenyl)-3-chloro-4-((3S,5R)-3,4,5-trimethylpiperazin-1-yl)benzamide] the same measures were 51 nM, 15 nM and 2.3 nM.
With `C[C@@H]1CN(c2ccc(C(=O)Nc3ccc(Cl)c(-c4ncc(-c5ccc(Cl)s5)[nH]4)c3)c(Cl)c2)C[C@H](C)N1C` [Example 138, N-(3-(5-(5-chlorothiophen-2-yl)-1H-imidazol-2-yl)-4-chlorophenyl)-2-chloro-4-((3S,5R)-3,4,5-trimethylpiperazin-1-yl)benzamide], the half-maximal inhibitory concentration (IC50) in assay [1] (setting [4]) worked out at 39 nM; in assay [2] (setting [4]), 1.6 nM; in assay [3] (Mus musculus, C3H 10T1/2, 24 h), 0.58 nM.
Taken in the same sequence, the figures for `Cc1cc(N2C[C@@H](C)N(C)[C@@H](C)C2)ccc1C(=O)Nc1ccc(Cl)c(-c2ncc(-c3ccsc3)[nH]2)c1` [Example 139, N-(3-(5-(thiophen-3-yl)-1H-imidazol-2-yl)-4-chlorophenyl)-2-methyl-4-((3S,5R)-3,4,5-trimethylpiperazin-1-yl)benzamide] were 44 nM, 1.8 nM and 1.1 nM.
For `C[C@@H]1CN(c2ccc(C(=O)Nc3ccc(Cl)c(-c4ncc(-c5ccsc5)[nH]4)c3)c(Cl)c2)C[C@H](C)N1C` [Example 140, N-(3-(5-(thiophen-3-yl)-1H-imidazol-2-yl)-4-chlorophenyl)-2-chloro-4-((3S,5R)-3,4,5-trimethylpiperazin-1-yl)benzamide] the same measures were 4.8 nM, 0.2 nM and 0.21 nM.
For `Cc1c(C(=O)Nc2ccc(Cl)c(-c3ncc(-c4ccsc4)[nH]3)c2)ccc(N2C[C@@H](C)N(C)[C@@H](C)C2)c1F` [Example 141, N-(3-(5-(thiophen-3-yl)-1H-imidazol-2-yl)-4-chlorophenyl)-2-methyl-3-fluoro-4-((3S,5R)-3,4,5-trimethylpiperazin-1-yl)benzamide] the same measures were 9.4 nM, 0.24 nM and 0.35 nM.
Take `Cc1cc(N2C[C@@H](C)N(C)[C@@H](C)C2)ccc1C(=O)Nc1ccc(Cl)c(-c2nc(C)c(-c3cccs3)[nH]2)c1` [Example 143, N-(3-(4-methyl-5-(thiophen-2-yl)-1H-imidazol-2-yl)-4-chlorophenyl)-2-methyl-4-((3S,5R)-3,4,5-trimethylpiperazin-1-yl)benzamide]: the half-maximal inhibitory concentration (IC50) in assay [1] (setting [4]) came out at 108 nM; in assay [2] (setting [4]), 15 nM; in assay [3] (Mus musculus, C3H 10T1/2, 24 h) it was 2.3 nM.
Turning to `C[C@@H]1CN(c2ccc(C(=O)Nc3ccc(Cl)c(-c4ncc(-c5ccco5)[nH]4)c3)c(Cl)c2)C[C@H](C)N1C` [Example 144, N-(3-(5-(furan-2-yl)-1H-imidazol-2-yl)-4-chlorophenyl)-2-chloro-4-((3S,5R)-3,4,5-trimethylpiperazin-1-yl)benzamide], the half-inhibitory concentration (IC50) came to 17 nM in assay [1] (setting [4]); 0.82 nM in assay [2] (setting [4]); 0.15 nM in assay [3] (Mus musculus, C3H 10T1/2, 24 h).
For `Cc1cc(N2C[C@@H](C)N(C)[C@@H](C)C2)ccc1C(=O)Nc1ccc(Cl)c(-c2ncc(-c3ccco3)[nH]2)c1` [Example 145, N-(3-(5-(furan-2-yl)-1H-imidazol-2-yl)-4-chlorophenyl)-2-methyl-4-((3S,5R)-3,4,5-trimethylpiperazin-1-yl)benzamide] the same measures were 3.3 nM, 0.93 nM and 0.38 nM.
On to `C[C@@H]1CN(c2ccc(C(=O)Nc3ccc(Cl)c(-c4ncc(-c5ccco5)[nH]4)c3)c(C(F)(F)F)c2)C[C@H](C)N1C` [Example 146, N-(3-(5-(furan-2-yl)-1H-imidazol-2-yl)-4-chlorophenyl)-2-(trifluoro-methyl)-4-((3S,5R)-3,4,5-trimethylpiperazin-1-yl)benzamide], for which the half-inhibitory concentration (IC50) was determined as 25 nM in assay [1] (setting [4]); 0.49 nM in assay [2] (setting [4]); 0.39 nM in assay [3] (Mus musculus, C3H 10T1/2, 24 h).

What is called IC50 is the midpoint of a concentration-inhibition curve.
